# Data from patent US7897627B2, “Heteroaryl derivatives as orexin receptor antagonists” (Hoffmann-La Roche Inc., priority 2007, dated 2011).
# Biological target: T1, human orexin-2 (hOX2) receptor (Homo sapiens, UniProt O43614)
# T1 construct: expressed in transfected cells
# T1 sequence (O43614 1-444): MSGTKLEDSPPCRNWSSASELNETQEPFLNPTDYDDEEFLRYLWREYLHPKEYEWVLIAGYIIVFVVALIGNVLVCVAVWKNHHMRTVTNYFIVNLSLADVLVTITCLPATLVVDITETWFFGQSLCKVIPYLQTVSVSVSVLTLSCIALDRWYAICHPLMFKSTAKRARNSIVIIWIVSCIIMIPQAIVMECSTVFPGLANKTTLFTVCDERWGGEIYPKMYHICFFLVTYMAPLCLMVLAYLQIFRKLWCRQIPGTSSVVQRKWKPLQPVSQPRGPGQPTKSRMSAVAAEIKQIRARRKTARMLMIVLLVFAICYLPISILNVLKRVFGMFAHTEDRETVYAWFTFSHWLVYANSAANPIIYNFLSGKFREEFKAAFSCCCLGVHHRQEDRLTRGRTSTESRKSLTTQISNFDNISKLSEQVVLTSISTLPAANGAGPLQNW
# Assay: Intracellular Ca2+ mobilization assay (FLIPR), CHO(dHFr-) cells expressing hOX2, orexin-A as agonist
# Type: cell-based
# Settings: antagonist Kb=IC50/(1+[A]/EC50); orexin-A at EC80; CHO(dHFr-)-OX2R cells; antagonist applied 25 min before agonist
# Method: Intracellular Ca^2+ Mobilization Assay
# The Chinese Hamster Ovary (dHFr-) mutant cell line stably expressing human orexin-1 (hOX1) or human orexin-2 (hOX2) receptors were maintained in Dulbecco's Modified Eagle Medium (1×) with GlutaMax™1, 4500 mg/L D-Glucose and Sodium Pyruvate (Catalog No. 31966-021, Invitrogen, Carlsbad, Calif.), 5% dialyzed fetal calf serum (Catalog No. 26400-044), 100 μg/ml penicillin and 100 μg/ml streptomycin. The cells were seeded at 5×10^4 cells/well in the poly-D-lysine treated, 96-well, black/clear-bottomed plates (Catalog No. BD356640, BD Biosciences, Palo Alto, Calif.). 24 h later, the cells were loaded for 1 h at 37° C. with 4 μM Flou-4 acetoxymethyl ester (Catalog No. F-14202, Molecular Probes, Eugene, Oreg.) in FLIPR buffer (1×HBSS, 20 mM HEPES, 2.5 mM Probenecid). Hanks' Balanced Salt Solution (HBSS) (10×) (catalog No. 14065-049) and HEPES (1M) (catalog No. 15630-056) were purchased from Invitrogen, Carlsbad, Calif. Probenecid (250 mM) (catalog No. P8761) was from Sigma, Buchs, Switzerland. The cells were washed five times with FLIPR buffer to remove excess dye and intracellular calcium mobilization, [Ca^2−]i were measured using a Fluorometric Imaging Plate Reader (FLIPR-96, Molecular Devices, Menlo Park, Calif.) as described previously (Malherbe et al., Mol. Pharmacol., 64, 823-832, 2003). Orexin A (catalog No. 1455, Toris Cookson Ltd, Bristol, UK) was used as agonist. Orexin A ([…] stock solution in DMSO) was diluted in FLIPR buffer+0.1% BSA. The EC50 and EC80 values of orexin-A were measured daily from standard agonist concentration-response curves in CHO(dHFr-)-OX1R and -OX2R cell lines. All compounds were dissolved in 100% DMSO. Inhibition curves were determined by addition of 11 concentrations (0.0001-10 μM) of inhibitory compounds and using EC80 value of orexin-A as agonist (a concentration which gave 80% of max agonist response, determined daily). The antagonists were applied 25 min (incubation at 37° C.) before the application of the agonist. Responses were measured as peak increase in fluorescence minus basal, normalized to the maximal stimulatory effect induced by EC80 value of orexin-A or orexin-B. Inhibition curves were fitted according to the Hill equation: y=100/(1+(x/IC50)^nH), where nH=slope factor using Excel-fit 4 software (Microsoft).
# Kb values were calculated according to the following equation Kb=IC50/(1+[A]/EC50) where A is the concentration of agonist added which is very close to agonist EC80 value, and IC50 and EC50 values were derived from the antagonist inhibition and orexin-A or B agonist curves, respectively.
row,SMILES,Kb [µM]
1,"COc1ccc(C)cc1C(=O)N1CC[C@@H](Nc2cnc3cc(F)c(F)cc3n2)C1 [Example 171, [(R)-3-(6,7-Difluoro-quinoxalin-2-ylamino)-pyrrolidin-1-yl]-(2-methoxy-5-methyl-phenyl)-methanone]",0.0245
2,"Cc1ccc(C(F)(F)F)c(C(=O)N2CC[C@@H](Nc3nc4ccc(Cl)cc4o3)C2)c1 [Example 68, [(R)-3-(6-Chloro-benzooxazol-2-ylamino)-pyrrolidin-1-yl]-(5-methyl-2-trifluoromethyl-phenyl)-methanone]",0.0018
3,"COc1cccc(OC)c1C(=O)N1CC[C@@H](Nc2nc3ccc(F)c(F)c3o2)C1 [Example 93, [(R)-3-(6,7-Difluoro-benzooxazol-2-ylamino)-pyrrolidin-1-yl]-(2,6-dimethoxy-phenyl)-methanone]",0.0164
4,"Cc1ccc(Cl)c(C(=O)N2CC[C@@H](Nc3cnc4cc(F)c(F)cc4n3)C2)c1 [Example 170, (2-Chloro-5-methyl-phenyl)-[(R)-3-(6,7-difluoro-quinoxalin-2-ylamino)-pyrrolidin-1-yl]-methanone]",0.0129
5,"Cc1onc(-c2ccccc2)c1C(=O)N1CC[C@@H](Nc2cnc3cc(F)c(F)cc3n2)C1 [Example 168, [(R)-3-(6,7-Difluoro-quinoxalin-2-ylamino)-pyrrolidin-1-yl]-(5-methyl-3-phenyl-isoxazol-4-yl)-methanone]",0.0038
6,"O=C(c1c(Cl)cccc1C(F)(F)F)N1CC[C@@H](Nc2nc3ccc(Cl)cc3o2)C1 [Example 79, [(R)-3-(6-Chloro-benzooxazol-2-ylamino)-pyrrolidin-1-yl]-(2-chloro-6-trifluoromethyl-phenyl)-methanone]",0.0173
7,"O=C(c1ccccc1-c1ccco1)N1CC[C@@H](Nc2nc3ccc(Cl)cc3o2)C1 [Example 57, [(R)-3-(6-Chloro-benzooxazol-2-ylamino)-pyrrolidin-1-yl]-(2-furan-2-yl-phenyl)-methanone]",0.0025
8,"CSc1ccccc1C(=O)N1CC[C@@H](Nc2nc3ccc(Cl)cc3o2)C1 [Example 53, [(R)-3-(6-Chloro-benzooxazol-2-ylamino)-pyrrolidin-1-yl]-(2-methylsulfanyl-phenyl)-methanone]",0.0299
9,"COc1cccc(OC)c1C(=O)N1CC[C@@H](Nc2nc3ccc(Cl)cc3o2)C1 [Example 5, [(R)-3-(6-Chloro-benzooxazol-2-ylamino)-pyrrolidin-1-yl]-(2,6-dimethoxy-phenyl)-methanone]",0.0242
10,"O=C(c1c(F)cccc1N1CCCC1)N1CC[C@@H](Nc2nc3ccc(Cl)cc3o2)C1 [Example 90, [(R)-3-(6-Chloro-benzooxazol-2-ylamino)-pyrrolidin-1-yl]-(2-fluoro-6-pyrrolidin-1-yl-phenyl)-methanone]",0.0186
11,"Cc1onc(-c2ccccc2)c1C(=O)N1CC[C@@H](Nc2cnc3cc(Cl)ccc3n2)C1 [Example 177, [(R)-3-(6-Chloro-quinoxalin-2-ylamino)-pyrrolidin-1-yl]-(5-methyl-3-phenyl-isoxazol-4-yl)-methanone]",0.0423
12,"Cc1onc(-c2ccccc2)c1C(=O)N1CC[C@@H](Nc2nc3cc(F)cc(F)c3s2)C1 [Example 134, [(R)-3-(5,7-Difluoro-benzothiazol-2-ylamino)-pyrrolidin-1-yl]-(5-methyl-3-phenyl-isoxazol-4-yl)-methanone]",0.0228
13,"Cc1cc(C(=O)N2CC[C@@H](Nc3nc4ccc(Cl)cc4o3)C2)c(C(F)(F)F)o1 [Example 86, [(R)-3-(6-Chloro-benzooxazol-2-ylamino)-pyrrolidin-1-yl]-(5-methyl-2-trifluoromethyl-furan-3-yl)-methanone]",0.0169
14,"Cc1ccc(C(F)(F)F)c(C(=O)N2CC[C@@H](Nc3nc4ccc(F)cc4o3)C2)c1 [Example 159, [(R)-3-(6-Fluoro-benzooxazol-2-ylamino)-pyrrolidin-1-yl]-(5-methyl-2-trifluoromethyl-phenyl)-methanone]",0.0205
15,"O=C(c1ccccc1-c1ccsc1)N1CC[C@@H](Nc2nc3ccc(Cl)cc3o2)C1 [Example 84, [(R)-3-(6-Chloro-benzooxazol-2-ylamino)-pyrrolidin-1-yl]-(2-thiophen-3-yl-phenyl)-methanone]",0.0056

# Next, values leading:
row,Kb [µM],SMILES
1,0.0163,"COc1cccc(OC)c1C(=O)N1CC[C@@H](Nc2nc3ccc(Cl)cc3s2)C1 [Example 25, [(R)-3-(6-Chloro-benzothiazol-2-ylamino)-pyrrolidin-1-yl]-(2,6-dimethoxy-phenyl)-methanone]"
2,0.009,"O=C(c1ccccc1OC(F)(F)F)N1CC[C@@H](Nc2cnc3cc(F)c(F)cc3n2)C1 [Example 166, [(R)-3-(6,7-Difluoro-quinoxalin-2-ylamino)-pyrrolidin-1-yl]-(2-trifluoromethoxy-phenyl)-methanone]"
3,0.0144,"Cc1noc(-c2ccccc2C(=O)N2CC[C@@H](Nc3nc4c(F)cccc4s3)C2)n1 [Example 126, [(R)-3-(4-Fluoro-benzothiazol-2-ylamino)-pyrrolidin-1-yl]-[2-(3-methyl-[1,2,4]oxadiazol-5-yl)-phenyl]-methanone]"
4,0.0193,"O=C(c1ccccc1OC(F)(F)F)N1CC[C@@H](Nc2nc3c(F)cccc3s2)C1 [Example 122, [(R)-3-(4-Fluoro-benzothiazol-2-ylamino)-pyrrolidin-1-yl]-(2-trifluoromethoxy-phenyl)-methanone]"
5,0.047,"O=C(c1ccccc1OC(F)F)N1CC[C@@H](Nc2nc3ccc(Cl)cc3o2)C1 [Example 56, [(R)-3-(6-Chloro-benzooxazol-2-ylamino)-pyrrolidin-1-yl]-(2-difluoromethoxy-phenyl)-methanone]"
6,0.02,"O=C(c1ccccc1OC(F)(F)F)N1CC[C@@H](Nc2cnc3ccccc3n2)C1 [Example 183, [(R)-3-(Quinoxalin-2-ylamino)-pyrrolidin-1-yl]-(2-trifluoromethoxy-phenyl)-methanone]"
7,0.0247,"O=C(c1ccccc1OC(F)(F)F)N1CC[C@@H](Nc2nc3ccc(F)cc3o2)C1 [Example 157, [(R)-3-(6-Fluoro-benzooxazol-2-ylamino)-pyrrolidin-1-yl]-(2-trifluoromethoxy-phenyl)-methanone]"
8,0.016,"O=C(c1ccccc1OC(F)(F)C(F)F)N1CC[C@@H](Nc2nc3cc(F)cc(F)c3s2)C1 [Example 132, [(R)-3-(5,7-Difluoro-benzothiazol-2-ylamino)-pyrrolidin-1-yl]-[2-(1,1,2,2-tetrafluoro-ethoxy)-phenyl]-methanone]"
9,0.0344,"O=C(c1ccccc1C(F)(F)F)N1CC[C@@H](Nc2nc3ccc(F)cc3s2)C1 [Example 112, [(R)-3-(6-Fluoro-benzothiazol-2-ylamino)-pyrrolidin-1-yl]-(2-trifluoromethyl-phenyl)-methanone]"
10,0.0185,"O=C(c1ccccc1C(F)(F)F)N1CC[C@@H](Nc2cnc3cc(F)c(F)cc3n2)C1 [Example 165, [(R)-3-(6,7-Difluoro-quinoxalin-2-ylamino)-pyrrolidin-1-yl]-(2-trifluoromethyl-phenyl)-methanone]"
11,0.0068,"Cc1ccc(C(F)(F)F)c(C(=O)N2CC[C@@H](Nc3nc4ccc(F)cc4s3)C2)c1 [Example 115, [(R)-3-(6-Fluoro-benzothiazol-2-ylamino)-pyrrolidin-1-yl]-(5-methyl-2-trifluoromethyl-phenyl)-methanone]"
